Data set [1] has as its target T1, human FXR alpha ligand binding domain (Homo sapiens, UniProt Q96RI1).
T1 construct: made in house; host or cells: E. coli BL21(DE3), vector pDEST15
T1 sequence (Q96RI1 187-472 isoform Q96RI1-2): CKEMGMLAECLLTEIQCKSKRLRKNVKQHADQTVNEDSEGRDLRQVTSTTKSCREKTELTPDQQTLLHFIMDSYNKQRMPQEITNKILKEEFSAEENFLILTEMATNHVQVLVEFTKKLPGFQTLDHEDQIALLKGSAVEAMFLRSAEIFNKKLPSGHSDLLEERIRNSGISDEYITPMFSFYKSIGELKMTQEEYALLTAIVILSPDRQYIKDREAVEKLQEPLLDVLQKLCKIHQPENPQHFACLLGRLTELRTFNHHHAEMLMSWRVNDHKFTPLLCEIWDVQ
Briefly: FRET activity assay (ligand mediated cofactor peptide interaction, LANCE). Format: biochemical. The settings on record: potency range. The protocol: Determination of a ligand mediated cofactor peptide interaction to quantify ligand binding to the nuclear receptor FXR was performed as follows: Preparation of human FXR alpha ligand binding domain: The human FXRalpha LBD was expressed in E. coli strain BL21(DE3) as an N-terminally GST tagged fusion protein. The DNA encoding the FXR ligand binding domain was cloned into vector pDEST15 (Invitrogen). Expression was under control of an IPTG inducible T7 promoter. The amino acid boundaries of the ligand binding domain were amino acids 187-472 of Database entry NM_005123 (RefSeq). Expression and purification of the FXR-LBD: An overnight preculture of a transformed E. coli strain was diluted 1:20 in LB-Ampicillin medium and grown at 30° C. to an optical density of OD600=0.4-0.6. Gene expression was then induced by addition of 0.5 mM IPTG. Cells were incubated an additional 6 h at 30° C., 180 rpm. Cells were collected by centrifugation (7000×g, 7 min, room temperature). Per liter of original cell culture, cells were resuspended in 10 mL lysis buffer (50 mM Glucose, 50 mM Tris pH 7.9, 1 mM EDTA and 4 mg/mL lysozyme) and left on ice for 30 min. Cells were then subjected to sonication and cell debris removed via centrifugation (22000×g, 30 min, 4° C.). Per 10 mL of supernatant 0.5 mL prewashed Glutathione 4B sepharose slurry (Qiagen) was added and the suspension kept slowly rotating for 1 h at 4° C. Glutathione 4B sepharose beads were pelleted by centrifugation (2000×g, 15 sec, 4° C.) and washed twice in wash buffer (25 mM Tris, 50 mM KCl, 4 mM MgCl2 and 1M NaCl). The pellet was resuspended in 3 mL elution buffer per liter of original culture (elution buffer: 20 mM Tris, 60 mM KCl, 5 mM MgCl2 and 80 mM glutathione added immediately prior to use as powder). The suspension was left rotating for 15 min at 4° C., the beads pelleted and eluted again with half the volume of elution buffer than the first time. The eluates were pooled and dialysed overnight in 20 mM Hepes buffer (pH 7.5) containing 60 mM KCl, 5 mM MgCl2 as well as 1 mM dithiothreitol and 10% (v/v) glycerol. The protein was analysed by SDS-Page.
The method measures the ability of putative ligands to modulate the interaction between the purified bacterial expressed FXR ligand binding domain (LBD) and a synthetic biotinylated peptide based on residues 676-700 of SRC-1 (LCD2, 676-700). […] The ligand binding domain (LBD) of FXR was expressed as fusion protein with GST in BL-21 cells using the vector pDEST15. Cells were lysed by sonication, and the fusion proteins purified over glutathione sepharose (Pharmacia) according to the manufacturers instructions. For screening of compounds for their influence on the FXR-peptide interaction, the Perkin Elmer LANCE technology was applied. This method relies on the binding dependent energy transfer from a donor to an acceptor fluorophor attached to the binding partner of interest. For ease of handling and reduction of background from compound fluorescence LANCE technology makes use of generic fluorophore labels and time resolved detection Assays were done in a final volume of 25 μL in a 384 well plate, in a Tris-based buffer (20 mM Tris-HCl pH 7.5; 60 mM KCl, 5 mM MgCl2; 35 ng/μL BSA), containing 20-60 ng/well recombinantly expressed FXR-LBD fused to GST, 200-600 nM N-terminally biotinylated peptide, representing SRC1 aminoacids 676-700, 200 ng/well Streptavidin-xIAPC conjugate (Prozyme) and 6-10 ng/well Eu W1024—antiGST (Perkin Elmer). DMSO content of the samples was kept at 1%. After generation of the assay mix and diluting the potentially FXR modulating ligands, the assay was equilibrated for one hour in the dark at room temperature in FIA-plates black 384 well (Greiner). The LANCE signal was detected by a Perkin Elmer VICTOR2V™ Multilabel Counter. The results were visualized by plotting the ratio between the emitted light at 665 and 615 nm.

Data set [2] is described as follows: Pharmacokinetics in rat after intravenous administration 1 mg/kg. It counts as in vivo, Male Sprague Dawley Rat. The note with it: for plasma levels as compared to GW4064: Male Sprague Dawley Rat, Table 3; for AUC(0-inf) / MRT last / Tmax / Vd / half-life / concentration at 0.083 hr / concentration at 0.25 hr / concentration at 0.5 hr / concentration at 1 hr / concentration at 2 hr / concentration at 4 hr / Cmax / AUC(0-t): male, Sprague Dawley, plasma; for AUC(0-inf) / MRT last / Tmax / Vd / half-life / concentration at 0.083 hr / concentration at 0.25 hr / concentration at 0.5 hr / concentration at 1 hr / concentration at 2 hr / concentration at 4 hr / AUC(0-t): iv; for AUC(0-inf) / MRT last / Tmax / Vd / half-life / concentration at 0.083 hr / concentration at 0.25 hr / concentration at 0.5 hr / concentration at 1 hr / concentration at 2 hr / concentration at 4 hr / Cmax / AUC(0-t) / AUC Extrapolated / CI: rat; for AUC(0-inf) / MRT last / Tmax / Vd / half-life / concentration at 0.083 hr / concentration at 0.25 hr / concentration at 0.5 hr / concentration at 1 hr / concentration at 2 hr / concentration at 4 hr / Cmax / AUC Extrapolated / CI: 1 mg/kg i.v.; for concentration at 0.5 hr: 0.50 hr; for Cmax: footnote: Co for Intravenous; for AUC(0-t): 1 mg/kg, read-out: #AUC(0-8). The procedure:
Compounds were applied perorally by gavage at 5 mg/kg each and by i.v. Injection at 1 mg/kg each to male 12 weeks old C57BI/6J or Sprague Dawley rats and plasma concentrations of the test items were determined by LC-MS/MS after time points as indicated. In the case of Cynomolgus monkeys ([…]), the dose was adjusted to 12 mg/kg p.o., no i.v. injection was given (FIG. 1a, 1b and Table 2).
A solution of 2.5 mg/mL of each test item was produced by diluting them in the vehicle, 0.5% Hydroxypropyl-Methylcellulose (w/v) in 20 mM phosphate buffered saline pH 7.4. The solutions were stirred overnight at room temperature and heated to 40° C. for 10 minutes, resulting in fully homogenous suspension. The application was performed by administrating the solution perorally to the mice, with an application volume of 5 mL/kg. For each time point three mice or rats were used. In case of the Cynomolgus monkeys blood samples were obtained by repeated vein puncture. Blood samples were treated with L1-heparin during collection procedure and stored on ice until centrifugation at 645 g (5 min, 4° C.). Plasma was harvested and kept at −20° C. until being assayed. To 50 μL of plasma sample […] acetonitrile containing an internal standard was added. Samples were vigorously shaken and centrifuged for 10 minutes at 6000 g and 20° C. An aliquot of the particle-free supernatant was transferred to 200 μL sampler vials and subsequently subjected to LC MS/MS for quantification.

For the compound `O=C(O)c1cccc(C2CC2c2ccc(OCc3c(-c4c(Cl)cccc4Cl)noc3C3CC3)cc2Cl)c1` (racemic) [Example 4, 3-(2-(2-chloro-4-((5-cyclopropyl-3-(2,6-dichlorophenyl)isoxazol-4-yl)methoxy)phenyl)-cyclopropyl)benzoic acid], the EC50 (commonly the concentration needed to bring the measured effect to its halfway point) in data set [1] is 10 to 100 nM. In data set [2], the “plasma levels as compared to GW4064” value is reported as “substantially higher”; the total exposure AUC(0-inf) (in general, total exposure, with the tail of the curve extrapolated) is 923 ng·h/mL; the MRT last (in general, a mean duration of stay, worked out from the concentration-time curve) came to 49.8 min; the Tmax (as a rule, the time at which the peak concentration occurs) is 4.98 min. In addition, in data set [2], the Vd (commonly a proportionality between amount in the body and measured concentration, not a real space) is 1.79 L/kg; the half-life (commonly the time in which the quantity being followed falls by half) was 68.4 min; the concentration at 0.083 hr came out at 1190 ng/mL; the concentration at 0.25 hr was 749 ng/mL. In data set [2], this compound displayed a concentration at 0.5 hr of 451 ng/mL, a concentration at 1 hr of 202 ng/mL, a concentration at 2 hr of 78.9 ng/mL and a concentration at 4 hr of 44.5 ng/mL. Further, in data set [2], the peak level (Cmax) was 1500 ng/mL, the AUC(0-t) stood at 850 ng·h/mL, the “AUC Extrapolated” value was 7.94% and the CI came out at 1083.05 mL/h/kg.

On to `O=C(O)c1ccc(C2CC2c2ccc(OCc3c(-c4c(Cl)cccc4Cl)noc3C3CC3)cc2Cl)cc1` (racemic) [Example 12, 4-(2-(2-chloro-4-((5-cyclopropyl-3-(2,6-dichlorophenyl)isoxazol-4-yl)methoxy)phenyl)cyclopropyl)benzoic acid], for which the EC50 in data set [1] was greater than 100 nM. Moreover, in data set [2], the “plasma levels as compared to GW4064” value is “substantially higher”, the total exposure AUC(0-inf) was found to be 440 ng·h/mL, the MRT last came out at 46.8 min and the Tmax turned out to be 4.98 min. In data set [2], this compound had a Vd of 4.82 L/kg, a half-life of 88.2 min, a concentration at 0.083 hr of 661 ng/mL and a concentration at 0.25 hr of 359 ng/mL. In data set [2], the concentration at 0.5 hr was 174 ng/mL, the concentration at 1 hr was found to be 84.6 ng/mL, the concentration at 2 hr is 37.7 ng/mL and the concentration at 4 hr was 19.2 ng/mL. Moreover, in data set [2], the Cmax (usually the maximum level reached in the sampled fluid or tissue) was determined as 895 ng/mL, the AUC(0-t) is 399 ng·h/mL, the “AUC Extrapolated” value was 9.28% and the CI is 2272.63 mL/h/kg.

The values above are taken from patent US8952042B2, “FXR (NR1H4) binding and activity modulating compounds” (Phenex Pharmaceuticals AG, priority 2009, dated 2015).
